Reference: PubChem BioAssay AID2060327 (Molecular Pharmacology Branch, DTP, NCI, 2025)
Several values for one entry are separate records, joined by “and”; a condition that tells them apart may be missing. Identical values can stand only once.

Tested on: PC-3 multi-cell spheroids, viability
Assay: Anticancer human tumor PC-3 cell line growth inhibition [IpAb];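 further: spheroids exposed to compounds for 7 days before readout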;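 on viability, T/C: 100% = DMSO vehicle control wells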
Details: for viability, T/C: stronger effect = lower value
Summary of the method: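 Combinations with ipatasertib or abemaciclib were tested on tumour spheroids holding HUVEC (25%) and MSC (15%) alongside 60% malignant cells. Top concentration was at or near clinical Cmax (10 microM if undefined), descending in half-log steps.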

[1] = curve of first compound, second compound 0.01 µM
[2] = curve of first compound, second compound 0.0316 µM
[3] = curve of first compound, second compound 0.1 µM
[4] = curve of first compound, second compound 0.316 µM
[5] = curve of first compound, second compound 1 µM
[6] = second compound 0.01 µM, first compound 0.0316 µM
[7] = second compound 0.01 µM, first compound 0.1 µM
[8] = second compound 0.0316 µM, first compound 0.0316 µM
[9] = second compound 0.0316 µM, first compound 0.1 µM
[10] = second compound 0.1 µM, first compound 0.0316 µM
[11] = second compound 0.1 µM, first compound 0.1 µM
[12] = second compound 0.1 µM, first compound 0.316 µM
[13] = second compound 0.1 µM, first compound 1 µM
[14] = second compound 0.1 µM, first compound 3.16 µM
[15] = second compound 0.1 µM, first compound 10 µM
[16] = second compound 0.316 µM, first compound 0.0316 µM
[17] = second compound 0.316 µM, first compound 0.1 µM
[18] = second compound 0.316 µM, first compound 0.316 µM
[19] = second compound 0.316 µM, first compound 1 µM
[20] = second compound 0.316 µM, first compound 3.16 µM
[21] = second compound 0.316 µM, first compound 10 µM
[22] = second compound 1 µM, first compound 0.0316 µM
[23] = second compound 1 µM, first compound 0.1 µM
[24] = second compound 1 µM, first compound 0.316 µM
[25] = second compound 1 µM, first compound 1 µM
[26] = second compound 1 µM, first compound 3.16 µM
[27] = second compound 1 µM, first compound 10 µM
[28] = curve of first compound, second compound 3.16 µM
[29] = curve of first compound, second compound 10 µM
[30] = second compound 3.16 µM, first compound 0.0316 µM
[31] = second compound 3.16 µM, first compound 0.1 µM
[32] = second compound 3.16 µM, first compound 0.316 µM
[33] = second compound 3.16 µM, first compound 1 µM
[34] = second compound 3.16 µM, first compound 3.16 µM
[35] = second compound 3.16 µM, first compound 10 µM
[36] = second compound 10 µM, first compound 0.0316 µM
[37] = second compound 10 µM, first compound 0.1 µM
[38] = second compound 10 µM, first compound 0.316 µM
[39] = second compound 10 µM, first compound 1 µM
[40] = second compound 10 µM, first compound 3.16 µM
[41] = second compound 10 µM, first compound 10 µM

`C=CC(=O)N1CCN(c2nc(=O)n(-c3c(C)ccnc3C(C)C)c3nc(-c4c(O)cccc4F)c(F)cc23)C(C)C1` (configuration not stated) + CCN1CCN(Cc2ccc(Nc3ncc(F)c(-c4cc(F)c5nc(C)n(C(C)C)c5c4)n3)nc2)CC1 gave an IC50 [1] greater than 10000 nM, an IC50 [2] greater than 10000 nM and an IC50 [3] greater than 10000 nM. It also gave an IC50 [4] greater than 10000 nM, an IC50 [5] of 5260 nM and a viability, T/C [6] of 84.3%. It also gave a viability, T/C [7] of 96%, a viability, T/C (second compound 0.01 µM, first compound 0.316 µM) of 98.6% and a viability, T/C (second compound 0.01 µM, first compound 1 µM) of 101%. It also gave a viability, T/C (second compound 0.01 µM, first compound 3.16 µM) of 114%, a viability, T/C (second compound 0.01 µM, first compound 10 µM) of 116% and a viability, T/C [8] of 51.8%. It also gave a viability, T/C [9] of 57.3%, a viability, T/C (second compound 0.0316 µM, first compound 0.316 µM) of 69.8% and a viability, T/C (second compound 0.0316 µM, first compound 1 µM) of 79.2%. The viability, T/C (second compound 0.0316 µM, first compound 3.16 µM) was 107%, the viability, T/C (second compound 0.0316 µM, first compound 10 µM) was 78.5% and the viability, T/C [10] was 58.1%. It also gave a viability, T/C [11] of 60.2%, a viability, T/C [12] of 60.4% and a viability, T/C [13] of 54.7%. The viability, T/C [14] was 64.2%, the viability, T/C [15] was 74.8% and the viability, T/C [16] was 65.2%. For the same molecule, the viability, T/C [17] was 67.8%, the viability, T/C [18] was 68.4% and the viability, T/C [19] was 70.6%. The viability, T/C [20] was 61%, the viability, T/C [21] was 48.2% and the viability, T/C [22] was 56.3%. For the same molecule, the viability, T/C [23] was 65.5%, the viability, T/C [24] was 60.5% and the viability, T/C [25] was 59.1%. The viability, T/C [26] was 60.3% and the viability, T/C [27] was 37.5%.
Molecule `C=CC(=O)N1CCN(c2nc(=O)n(-c3c(C)ccnc3C(C)C)c3nc(-c4c(O)cccc4F)c(F)cc23)C(C)C1` (configuration not stated) + CC(C)NCC(C(=O)N1CCN(c2ncnc3c2C(C)CC3O)CC1)c1ccc(Cl)cc1 has an IC50 [3] greater than 10000 nM, an IC50 [4] of less than 31.6 nM and an IC50 [5] of less than 31.6 nM. For the same molecule, the IC50 [28] was less than 31.6 nM, the IC50 [29] was less than 31.6 nM and the viability, T/C [10] was 82%. It also gave a viability, T/C [11] of 73.5%, a viability, T/C [12] of 72.8% and a viability, T/C [13] of 83.6%. It also gave a viability, T/C [14] of 99.1%, a viability, T/C [15] of 87.2% and a viability, T/C [16] of 44.4%. The viability, T/C [17] was 44.4%, the viability, T/C [18] was 43.7% and the viability, T/C [19] was 34.7%. The viability, T/C [20] was 41.7%, the viability, T/C [21] was 43.1% and the viability, T/C [22] was 26.5%. For the same molecule, the viability, T/C [23] was 27.1%, the viability, T/C [24] was 27% and the viability, T/C [25] was 25.8%. It also gave a viability, T/C [26] of 26.3%, a viability, T/C [27] of 23.2% and a viability, T/C [30] of 15.1%. The viability, T/C [31] was 15%, the viability, T/C [32] was 15.5% and the viability, T/C [33] was 15.6%. The viability, T/C [34] was 17.1%, the viability, T/C [35] was 13.1% and the viability, T/C [36] was 14.6%. For the same molecule, the viability, T/C [37] was 13.7%, the viability, T/C [38] was 13.4% and the viability, T/C [39] was 14%. The viability, T/C [40] was 14.5% and the viability, T/C [41] was 7.96%.
`Cn1ncnc1[C@H]1c2n[nH]c(=O)c3cc(F)cc(c23)N[C@@H]1c1ccc(F)cc1` + CCN1CCN(Cc2ccc(Nc3ncc(F)c(-c4cc(F)c5nc(C)n(C(C)C)c5c4)n3)nc2)CC1 showed an IC50 [1] of 9.02 nM, an IC50 [2] of 2.23 nM and an IC50 [3] of 0.803 nM. It also gave an IC50 [4] of 28.4 nM, an IC50 [5] of 5.12 nM and a viability, T/C (second compound 0.01 µM, first compound 0.000316 µM) of 82%. The viability, T/C (second compound 0.01 µM, first compound 0.001 µM) was 61.4%, the viability, T/C (second compound 0.01 µM, first compound 0.00316 µM) was 60.6% and the viability, T/C (second compound 0.01 µM, first compound 0.01 µM) was 47.1%. For the same molecule, the viability, T/C [6] was 46%, the viability, T/C [7] was 44.3% and the viability, T/C (second compound 0.0316 µM, first compound 0.000316 µM) was 61.5%. It also gave a viability, T/C (second compound 0.0316 µM, first compound 0.001 µM) of 50.8%, a viability, T/C (second compound 0.0316 µM, first compound 0.00316 µM) of 47.3% and a viability, T/C (second compound 0.0316 µM, first compound 0.01 µM) of 49.3%. For the same molecule, the viability, T/C [8] was 48%, the viability, T/C [9] was 39% and the viability, T/C (second compound 0.1 µM, first compound 0.000316 µM) was 48.2%. The viability, T/C (second compound 0.1 µM, first compound 0.001 µM) was 50.3%, the viability, T/C (second compound 0.1 µM, first compound 0.00316 µM) was 52.1% and the viability, T/C (second compound 0.1 µM, first compound 0.01 µM) was 48.6%. The viability, T/C [10] was 44%, the viability, T/C [11] was 42.7% and the viability, T/C (second compound 0.316 µM, first compound 0.000316 µM) was 59.6%. For the same molecule, the viability, T/C (second compound 0.316 µM, first compound 0.001 µM) was 58.2%, the viability, T/C (second compound 0.316 µM, first compound 0.00316 µM) was 64% and the viability, T/C (second compound 0.316 µM, first compound 0.01 µM) was 54.5%. It also gave a viability, T/C [16] of 47.6%, a viability, T/C [17] of 37.8% and a viability, T/C (second compound 1 µM, first compound 0.000316 µM) of 61%. It also gave a viability, T/C (second compound 1 µM, first compound 0.001 µM) of 48.8%, a viability, T/C (second compound 1 µM, first compound 0.00316 µM) of 46.5% and a viability, T/C (second compound 1 µM, first compound 0.01 µM) of 49.6%. For the same molecule, the viability, T/C [22] was 44.6% and the viability, T/C [23] was 29.4%.
Molecule `Cc1nc(NC(=O)N2CCCC2C(N)=O)sc1-c1ccnc(C(C)(C)C(F)(F)F)c1` (configuration not stated) + CC(C)NCC(C(=O)N1CCN(c2ncnc3c2C(C)CC3O)CC1)c1ccc(Cl)cc1 has an IC50 [3] of 955 nM, an IC50 [4] of less than 31.6 nM and an IC50 [5] of less than 31.6 nM. For the same molecule, the IC50 [28] was less than 31.6 nM, the IC50 [29] was less than 31.6 nM and the viability, T/C [10] was 60.7%. It also gave a viability, T/C [11] of 51.8%, a viability, T/C [12] of 47.8% and a viability, T/C [13] of 49.5%. For the same molecule, the viability, T/C [14] was 41.8%, the viability, T/C [15] was 10.6% and the viability, T/C [16] was 43.7%. The viability, T/C [17] was 44.4%, the viability, T/C [18] was 39.2% and the viability, T/C [19] was 30.2%. For the same molecule, the viability, T/C [20] was 24.6%, the viability, T/C [21] was 9.66% and the viability, T/C [22] was 26.5%. It also gave a viability, T/C [23] of 24.1%, a viability, T/C [24] of 17.8% and a viability, T/C [25] of 15.8%. It also gave a viability, T/C [26] of 12.5%, a viability, T/C [27] of 5.72% and a viability, T/C [30] of 14.2%. The viability, T/C [31] was 14.7%, the viability, T/C [32] was 11.8% and the viability, T/C [33] was 11.4%. The viability, T/C [34] was 8.54%, the viability, T/C [35] was 3.24% and the viability, T/C [36] was 13.4%. The viability, T/C [37] was 12.8%, the viability, T/C [38] was 10.5% and the viability, T/C [39] was 9.02%. For the same molecule, the viability, T/C [40] was 7.87% and the viability, T/C [41] was 2.4%.
With `Cn1ncnc1[C@H]1c2n[nH]c(=O)c3cc(F)cc(c23)N[C@@H]1c1ccc(F)cc1` the viability, T/C (compound 0.000316 µM) was 96.7% and 95.8%, the viability, T/C (compound 0.001 µM) was 87.8% and 95.3% and the viability, T/C (compound 0.00316 µM) was 74.8% and 63%. For the same molecule, the viability, T/C (compound 0.01 µM) was 53.3% and 58.5%, the viability, T/C (compound 0.0316 µM) was 43.7% and 50.4% and the viability, T/C (compound 0.1 µM) was 43.8% and 39%. The IC50 (curve of compound) was 16.3 nM and 19.1 nM.
